# Data from patent US4299838A, “Tryptophan derivatives having an increased effect on the central nervous system” (priority 1974, dated 1981).
# What was measured:
# [1] = Acute toxicity (LD 50) in the mouse; format: in vivo; settings: mouse, in vivo, po
# From the text: (§1) The oral LD-50 is 16.50 g/kg for DL and 18.25 g/kg for L(+).
# [2] = Solubility and hygroscopicity; format: physicochemical
# [3] = Acute toxicity (LD 50) in the mouse; format: in vivo; settings: mouse, in vivo, ip, intraperitoneal, mice
# mice [4] = assay: Acute toxicity (LD 50) in the mouse; format: in vivo; settings: for LD50: intraperitoneal, mice; for LD-50: oral, mouse
# depression = assay: Clinical tests in depression; format: in vivo; settings: human
# From the text: (§2) The importance of the compounds according to the invention was confirmed by clinical tests.
# [5] = Pharmacological study, overall comparison; format: in vivo; settings: for pharmacological properties: in vivo
# [6] = system: amphetamine hyperactivity; assay: Potentiation of amphetamine hyperactivity (actography); format: in vivo, mouse
# From the text: (f) Potentiation of amphetamine hyperactivity.
# reserpine ptosis = assay: Reserpine anti-ptosis effect; format: in vivo, mouse
# Method: (d) A reserpine anti-ptosis effect. Increasing doses of the test product were subcutaneously administered to male mice, 30 minutes before intraperitoneal injection of reserpine. The ptosis was measured every half-hour for 5 hours by the method of Rubin et Coll. (observation of the occlusion of the lids of each eye). The percentage protection against ptosis was calculated, compared with controls. Lithium acetyl tryptothanate reduced ptosis produced by reserpine, to an extent which increased up to a dose of 800 mg/kg (45% reduction).
# mice [7] = assay: Acute toxicity (LD 50) in the mouse; format: in vivo
# From the text: as §1
# [8] = system: hyperactivity due to the association of amphetamine and chlorodiazepoxide; assay: Inhibition of hyperactivity due to the association of amphetamine and chlorodiazepoxide (actography); format: in vivo, mouse; settings: 500 and 1000 mg/kg i.p., 1 hour and 3 hours before (+) amphetamine sulphate (5 mg/kg) and chlorodiazepoxide (25 or 50 mg/kg)
# Method: (b) Inhibition of hyperactivity due to the association of amphetamine and chlorodiazepoxide;
# Simultaneous intraperitoneal administration of (+) amphetamine sulphate (5 mg/kg) and chlorodiazepoxide (25 or 50 mg/kg) to mice produced hyperactivity which was measured by the actography method, wherein the mice are placed in pairs in three suspended cages and their movements are recorded.
# rat = assay: Hypothermic effect on the rat (rectal temperature); format: in vivo; settings: 1 g/kg intraperitoneal
# From the text: (a) A hypothermic effect on the rat.
# exploratory activity = assay: Exploratory activity in the perforated board test; format: in vivo, mouse; settings: mice
# From the text: (c) The reduction of exploratory activity in the `perforated board` test (Boissiet and Simon-Arch-Int. Pharmacodyn. 1964, 147, 3-4).
# [9] = system: manic-depressive psychoses; assay: Clinical tests in manic-depressive psychoses; format: in vivo, human
# Method: as §2
# Lithium N-acetyl tryptophanate was used to treat manic-depressive psychoses.
# A person was treated for a manic-depressive psychosis for 6 years. Relapses normally occurred in spring. They were not prevented either by tricyclic drugs or by IMAO substances. Treatment with lithium carbonate produced oligo-menorrhoea, although the patient normally had regular periods.
# [10] = system: analgesia produced by morphine; assay: Heating plate test (analgesia produced by morphine); format: in vivo
# [11] = system: pentobarbitone sleeping time; assay: Pentobarbitone sleeping time; format: in vivo; settings: mouse, 35 mg/kg pentobarbitone 5 minutes before sub-cutaneous product
# gastric ulcers [12] = assay: Anti-ulcer effect, Shay method (ligature of the pylorus); format: in vivo, mouse; settings: for ED50: mouse, read-out: DE-50 (anti-ulcer dose 50)
# Method: (§3) Mg acetyl tryptophanate dissolved in twice-distilled water was administered 48 hours before, 24 hours before and at the moment when the mouse was put under constraint, or 24 hours before and 1 hour before the ligature of the pylorus.
# (§4) The DE-50 (anti-ulcer dose 50) of orally-administered Mg acetyl tryptophanate, measured by the stress-ulcer method, was 1700 mg/kg. The DE-50 of intraperitoneally administered Mg acetyl tryptophanate was 230 mg/kg, measured by the stress-ulcer method (i.e. one-tenth of the LD-50) compared with 16 mg/kg (33/100 of the LD-50) for prifinium bromide; measured by the Shay method, the DE-50 was 340 mg/kg (14/100 of the LD-50) for Mg acetyl tryptophanate, compared with 25 mg/kg (52/100 of the LD-50) for prifinium bromide under the same conditions.
# [13] = Acute toxicity (LD-50) in the rat; settings: in vivo
# From the text: as §1
# gastric ulcers [14] = assay: Anti-ulcer effect, stress-ulcer method of Rossi et Coll.; format: in vivo, mouse; settings: for DE-50 as fraction of the LD-50 / ED50: stress-ulcer method; for ED50: mouse, read-out: DE-50 (anti-ulcer dose 50)
# Method: as §3, §4
smiles,measurement,setting,value
"CC(=O)NC(Cc1c[nH]c2ccccc12)C(=O)O (racemic) [Lithium N-acetyl tryptophanate (DL), Li N-acetyl tryptophan (DL)]",LD50,[1],8700 mg/kg
same,solubility in water,[2],very soluble
same,LD50,[3],3400 mg/kg
"CC(=O)NC(Cc1c[nH]c2ccccc12)C(=O)O (racemic) [Magnesium N-acetyl tryptophanate (DL), magnesium N-acetyl tryptophanate (DL)]",LD50,[1],16500 mg/kg
same,hygroscopicity,[2],very hygroscopic
same,LD50,mice [4],2800 mg/kg
"CC(=O)NC(Cc1c[nH]c2ccccc12)C(=O)O (racemic) [Monoethanolamine N-acetyl tryptophanate, monoethanolamine N-acetyl tryptophanate (DL)]","effect on sleep, sthenic action and headaches",depression,"producing normal sleep, accompanied by a daily sthenic action and the control of refractory headaches"
same,use in the treatment of depression,depression,of use in the treatment of depression
same,solubility in chlorine and hydrocarbon derivatives,[2]; chlorine and hydrocarbon derivatives,insoluble
same,solubility in water,[2],fairly soluble
same,LD-50,mice [4],above 18 g/kg
same,pharmacological properties,[5],very similar to those of magnesium N-acetyl tryptophanate
"CC(=O)NC(Cc1c[nH]c2ccccc12)C(=O)O (racemic) [Morpholine N-acetyl tryptophanate, morpholine N-acetyl tryptophanate]","effect on sleep, sthenic action and headaches",depression,"producing normal sleep, accompanied by a daily sthenic action and the control of refractory headaches"
same,use in the treatment of depression,depression,of use in the treatment of depression
same,solubility in chlorinated solvents,[2]; chlorinated solvents,slightly soluble
same,solubility in water,[2],very soluble
same,LD-50,mice [4],16000 mg/kg
same,pharmacological properties,[5],very similar to those of magnesium N-acetyl tryptophanate
"C[C@H](N)Cc1ccccc1 [Dexamphetamine sulphate, dexamphetamine sulphate, reference compound]","excitation, dexamphetamine sulphate alone","[6]; 5 mg/kg intraperitoneal, mouse",did not produce very marked excitation
"CC(=O)N[C@@H](Cc1c[nH]c2ccccc12)C(=O)O [Lithium N-acetyl tryptophanate L(+), Lithium N-acetyl tryptophanate in the L(+) form]",LD50,[1],10500 mg/kg
same,solubility in chlorinated and aromatic solvents,[2]; chlorinated and aromatic solvents,very slightly soluble
same,solubility in ethyl alcohol,[2]; ethyl alcohol,soluble
same,solubility in water,[2],soluble
same,LD50,[3],3250 mg/kg
"CC(=O)NC(Cc1c[nH]c2ccccc12)C(=O)O (stereo not drawn) [Lithium N-acetyl tryptophanate, lithium N-acetyl tryptophanate]",excitation with 5 mg/kg dexamphetamine sulphate plus product (actography),"[6]; 500 mg/kg with 5 mg/kg i.p. dexamphetamine sulphate, mice",to a considerably greater extent than with dexamphetamine sulphate alone
same,reduction of ptosis produced by reserpine,"reserpine ptosis; 800 mg/kg subcutaneous, 30 minutes before i.p. reserpine, male mice",45%
same,toxicity in words,"mice [7]; mouse, in vivo",only slightly toxic
same,oral toxicity in words,mice [7]; oral,low
same,reduction in hyperactivity,[8],very marked reduction in hyperactivity
same,duration of progressive reduction of rectal temperature after injection,rat,110 min
same,temperature of the rectum,rat,progressively reduces the temperature of the rectum
same,mobility,exploratory activity; 1000 mg/kg intraperitoneal,very marked increase in mobility
same,exploratory activity,exploratory activity; 1500 mg/kg intraperitoneal,significant reduction in exploratory activity
same,tolerance by patients,"[9]; human, in vivo",tolerated by the patients better than lithium carbonate
same,prevention of relapses,[9]; manic-depressive psychoses,appeared to prevent relapses into cyclothymia
same,effect on analgesia produced by morphine,[10],did not affect analgesia produced by morphine
"O=C(O)O [Lithium carbonate, lithium carbonate]",lithaemia,[9]; observation No. 1,≤ 1 meq
same,side effect on menstruation,[9]; observation No. 1,oligo-menorrhoea
same,side effects during treatment,[9]; observation No. 1,nausea and attacks of vomiting
"CC(=O)N[C@@H](Cc1c[nH]c2ccccc12)C(=O)O [Magnesium N-acetyl tryptophanate L(+), L(+) magnesium N-acetyl tryptophanate]",LD50,[1],18200 mg/kg
same,solubility in water,[2],very soluble
same,LD50,mice [4],2300 mg/kg
"CC(=O)NC(Cc1c[nH]c2ccccc12)C(=O)O (stereo not drawn) [Magnesium N-acetyl tryptophanate, magnesium N-acetyl tryptophanate]",average sleeping time,[11],increased the average sleeping time to an extent proportional to the dose
same,reserpine anti-ptosis effect in words,"reserpine ptosis; mouse, in vivo",only a very slight reserpine anti-ptosis effect
same,DE-50 as fraction of the LD-50,gastric ulcers [12],14/100
same,ED50,gastric ulcers [12],340 mg/kg
same,LD50,"[13]; ip, intraperitoneal",1350 mg/kg
same,LD50,[13]; oral,> 8000 mg/kg
same,"effect on sleep, sthenic action and headaches",depression,"producing normal sleep, accompanied by a daily sthenic action and the control of refractory headaches"
same,use in the treatment of depression,depression,of use in the treatment of depression
same,anti-ulcer effect compared with prifinium bromide,gastric ulcers [14]; both ulcer methods,slightly lower anti-ulcer effect than prifinium bromide
same,safety in therapy compared with prifinium bromide,gastric ulcers [14]; both ulcer methods,safer in therapy
same,DE-50 as fraction of the LD-50,gastric ulcers [14]; intraperitoneal,one-tenth
same,ED50,"gastric ulcers [14]; ip, intraperitoneal",230 mg/kg
same,ED50,gastric ulcers [14]; oral,1700 mg/kg
same,action compared with lithium acetyl tryptophanate,[5]; measured by the same tests,slower but more prolonged
"CC[N+]1(CC)CCC(=C(c2ccccc2)c2ccccc2)C1C (stereo not drawn) [Prifinium bromide, prifinium bromide, reference compound]",DE-50 as fraction of the LD-50,gastric ulcers [12],52/100
same,ED50,gastric ulcers [12],25 mg/kg
same,DE-50 as fraction of the LD-50,gastric ulcers [14]; intraperitoneal,33/100
same,ED50,"gastric ulcers [14]; ip, intraperitoneal",16 mg/kg
